One data set has as its system HEK-293T. The experiment in a line: Cytotoxicity against human HEK293T cells assessed as cell death measured after 18 to 24 hrs by MTT assay. The data set is classed as functional. Particulars: time 18-24 hrs.
A short description of data set [1]: Cytotoxicity against porcine IPEC-J2 cells assessed as cell death measured after 18 to 24 hrs by MTT assay. The data set is classed as functional. Conditions: Sus scrofa, time 18-24 hrs.
The test system of data set [2] is Escherichia coli. Kind of data set: Antimicrobial activity against Escherichia coli K99 assessed as increase in absorbance incubated for 20 to 22 hrs. The data set is classed as functional. Particulars: time 20-22 hrs.
The nature of data set [3]: Hemolytic activity in healthy human RBC assessed as hemolysis incubated for 1 hr by microplate reader. The data set is classed as toxicity, cell-based. Conditions: erythrocyte.
Another data set has as its system Pseudomonas aeruginosa. Kind of data set: Antimicrobial activity against Pseudomonas aeruginosa 27853 assessed as increase in absorbance incubated for 20 to 22 hrs. Particulars: time 20-22 hrs. The data set is classed as functional.
For the next data set, the system named is RAW264.7. Kind of data set: Cytotoxicity against mouse RAW264.7 cells assessed as cell death measured after 18 to 24 hrs by MTT assay. Conditions: time 18-24 hrs. The data set is classed as functional.
Another data set has as its system Enterococcus faecalis. Kind of data set: Antimicrobial activity against Enterococcus faecalis 29212 assessed as increase in absorbance incubated for 20 to 22 hrs. Particulars: time 20-22 hrs. The data set is classed as functional.
In data set [4] the test system is Staphylococcus aureus. Kind of data set: Antimicrobial activity against Staphylococcus aureus 25923 assessed as increase in absorbance incubated for 20 to 22 hrs. The data set is classed as functional. Particulars: time 20-22 hrs.
The test system of data set [5] is Escherichia coli. Kind of data set: Antimicrobial activity against Escherichia coli ATCC 25922 assessed as increase in absorbance incubated for 20 to 22 hrs. The data set is classed as functional. Particulars: time 20-22 hrs.
Data set [6] deals with Staphylococcus aureus. Kind of data set: Antimicrobial activity against methicillin-resistant Staphylococcus aureus 43300 assessed as increase in absorbance incubated for 20 to 22 hrs. The data set is classed as functional. Conditions: time 20-22 hrs.
Data set [7] deals with Salmonella typhimurium. Kind of data set: Antimicrobial activity against Salmonella typhimurium 7731 assessed as increase in absorbance incubated for 20 to 22 hrs. The data set is classed as functional, Salmonella enterica subsp. enterica serovar Typhimurium. Conditions: Salmonella enterica, time 20-22 hrs.
Data set [8] relates to Staphylococcus aureus. The experiment in a line: Antimicrobial activity against Staphylococcus aureus 29213 assessed as increase in absorbance incubated for 20 to 22 hrs. The data set is classed as functional. Particulars: time 20-22 hrs.
Data set [9] concerns Escherichia coli. The experiment in a line: Antimicrobial activity against Escherichia coli K88 assessed as increase in absorbance incubated for 20 to 22 hrs. Conditions: time 20-22 hrs. The data set is classed as functional.
Data set [10] deals with Staphylococcus epidermidis. Kind of data set: Antimicrobial activity against Staphylococcus epidermidis 12228 assessed as increase in absorbance incubated for 20 to 22 hrs. Conditions: time 20-22 hrs. The data set is classed as functional.
Data set [11] has as its system Salmonella typhimurium. Kind of data set: Antimicrobial activity against Salmonella typhimurium 14028 assessed as increase in absorbance incubated for 20 to 22 hrs. The data set is classed as functional, Salmonella enterica subsp. enterica serovar Typhimurium. Particulars: Salmonella enterica, time 20-22 hrs.

Values after ≈ are worked out from the molar mass of the structure shown.

Regarding `CCCCCCCCCCCC(=O)NCCCC[C@H](NC(=O)[C@@H](N)CS)C(=O)NCC(=O)NCC(=O)NCC(=O)N[C@H](CCCNC(=N)N)C(=O)N[C@@H](CCCNC(=N)N)C(=O)N[C@@H](CCCNC(=N)N)C(=O)N1CCC[C@H]1C(=O)O`, the IC10 with HEK-293T is 128 µM; in data set [1] it was 256 µM; in the data set on RAW264.7, 128 µM. Besides, the MIC in the data set with Escherichia coli [2] came out at 64 µM (≈ 74.8 µg/mL); with Pseudomonas aeruginosa, 32 µM (≈ 37.4 µg/mL); in the data set on Enterococcus faecalis, 64 µM (≈ 74.8 µg/mL); in the data set on Staphylococcus aureus [4] it was 128 µM (≈ 150 µg/mL); in the data set with Escherichia coli [5], 32 µM (≈ 37.4 µg/mL); with Staphylococcus aureus [6], 64 µM (≈ 74.8 µg/mL). The MIC came out at 64 µM (≈ 74.8 µg/mL) in the data set on Salmonella typhimurium [7]; 64 µM (≈ 74.8 µg/mL) in the data set with Staphylococcus aureus [8]; 32 µM (≈ 37.4 µg/mL) with Escherichia coli [9]; 64 µM (≈ 74.8 µg/mL) in data set [10]; 128 µM (≈ 150 µg/mL) in the data set with Salmonella typhimurium [11]. Further, in data set [3], the HC10 was determined as 128 µM.
In the case of `CCCCCCCC(=O)NCCCC[C@H](N)C(=O)NCC(=O)NCC(=O)NCC(=O)N[C@H](CCCNC(=N)N)C(=O)N[C@@H](CCCNC(=N)N)C(=O)N[C@@H](CCCNC(=N)N)C(=O)N1CCC[C@H]1C(=O)N[C@@H](CS)C(=O)O`, the IC10 (with HEK-293T; in data set [1]; in the data set on RAW264.7) was 256 µM in each case. Also, the MIC turned out to be 32 µM (≈ 35.6 µg/mL) with Escherichia coli [2]; 8 µM (≈ 8.9 µg/mL) in the data set with Pseudomonas aeruginosa; 128 µM (≈ 142 µg/mL) with Enterococcus faecalis; 128 µM (≈ 142 µg/mL) in the data set with Staphylococcus aureus [4]; 32 µM (≈ 35.6 µg/mL) in the data set on Escherichia coli [5]; 128 µM (≈ 142 µg/mL) in the data set on Staphylococcus aureus [6]. Besides, the MIC in the data set on Salmonella typhimurium [7] is 32 µM (≈ 35.6 µg/mL); in the data set with Staphylococcus aureus [8], 128 µM (≈ 142 µg/mL); in the data set on Escherichia coli [9], 32 µM (≈ 35.6 µg/mL); in [10], 128 µM (≈ 142 µg/mL); with Salmonella typhimurium [11], 64 µM (≈ 71.2 µg/mL). The HC10 in data set [3] was 256 µM.
Turning to `CCCCCCCCCCCC(=O)NCCCC[C@H](N)C(=O)NCC(=O)NCC(=O)NCC(=O)N[C@H](CCCNC(=N)N)C(=O)N[C@@H](CCCNC(=N)N)C(=O)N[C@@H](CCCNC(=N)N)C(=O)N1CCC[C@H]1C(=O)N[C@@H](CSSC[C@H](NC(=O)[C@@H]1CCCN1C(=O)[C@H](CCCNC(=N)N)NC(=O)[C@H](CCCNC(=N)N)NC(=O)[C@@H](CCCNC(=N)N)NC(=O)CNC(=O)CNC(=O)CNC(=O)[C@@H](N)CCCCNC(=O)CCCCCCCCCCC)C(=O)O)C(=O)O`, the IC10 in the data set on HEK-293T worked out at 128 µM; in [1], 32 µM; in the data set with RAW264.7, 64 µM. Also, the MIC in the data set on Escherichia coli [2] was determined as 32 µM (≈ 74.7 µg/mL); in the data set on Pseudomonas aeruginosa, 8 µM (≈ 18.7 µg/mL); with Enterococcus faecalis it was 32 µM (≈ 74.7 µg/mL); in the data set on Staphylococcus aureus [4], 32 µM (≈ 74.7 µg/mL); in the data set with Escherichia coli [5] it was 8 µM (≈ 18.7 µg/mL); in the data set on Staphylococcus aureus [6] it was 32 µM (≈ 74.7 µg/mL). Further, the MIC is 32 µM (≈ 74.7 µg/mL) in the data set with Salmonella typhimurium [7]; 32 µM (≈ 74.7 µg/mL) with Staphylococcus aureus [8]; 16 µM (≈ 37.4 µg/mL) in the data set on Escherichia coli [9]; 32 µM (≈ 74.7 µg/mL) in data set [10]; 32 µM (≈ 74.7 µg/mL) in the data set on Salmonella typhimurium [11]. Besides, the HC10 in data set [3] was 64 µM.
On to `CCCCCCCC(=O)NCCCC[C@H](NC(=O)[C@@H](N)CSSC[C@H](N)C(=O)N[C@@H](CCCCNC(=O)CCCCCCC)C(=O)NCC(=O)NCC(=O)NCC(=O)N[C@H](CCCNC(=N)N)C(=O)N[C@@H](CCCNC(=N)N)C(=O)N[C@@H](CCCNC(=N)N)C(=O)N1CCC[C@H]1C(=O)O)C(=O)NCC(=O)NCC(=O)NCC(=O)N[C@H](CCCNC(=N)N)C(=O)N[C@@H](CCCNC(=N)N)C(=O)N[C@@H](CCCNC(=N)N)C(=O)N1CCC[C@H]1C(=O)O`, for which the IC10 (in the data set with HEK-293T; in data set [1]; in the data set with RAW264.7) was 256 µM each time. The MIC with Escherichia coli [2] came to 8 µM (≈ 17.8 µg/mL); with Pseudomonas aeruginosa, 16 µM (≈ 35.6 µg/mL); with Enterococcus faecalis it was 128 µM (≈ 285 µg/mL); in the data set with Staphylococcus aureus [4], 128 µM (≈ 285 µg/mL); in the data set on Escherichia coli [5] it was 8 µM (≈ 17.8 µg/mL); in the data set with Staphylococcus aureus [6], 128 µM (≈ 285 µg/mL). In addition, the MIC in the data set on Salmonella typhimurium [7] was found to be 16 µM (≈ 35.6 µg/mL); with Staphylococcus aureus [8] it was 128 µM (≈ 285 µg/mL); in the data set with Escherichia coli [9], 8 µM (≈ 17.8 µg/mL); in data set [10], 128 µM (≈ 285 µg/mL); with Salmonella typhimurium [11], 16 µM (≈ 35.6 µg/mL). For the same molecule, in data set [3], the HC10 stood at 256 µM.
Consider `CCCCCCCCCC(=O)NCCCC[C@H](N)C(=O)NCC(=O)NCC(=O)NCC(=O)N[C@H](CCCNC(=N)N)C(=O)N[C@@H](CCCNC(=N)N)C(=O)N[C@@H](CCCNC(=N)N)C(=O)N1CCC[C@H]1C(=O)N[C@@H](CS)C(=O)O`, for which the IC10 (in the data set on HEK-293T; in data set [1]; in the data set on RAW264.7) was 256 µM each time. For the same molecule, the minimal inhibitory concentration (MIC) in the data set on Escherichia coli [2] is 16 µM (≈ 18.2 µg/mL); in the data set with Pseudomonas aeruginosa, 8 µM (≈ 9.12 µg/mL); in the data set with Enterococcus faecalis, 32 µM (≈ 36.5 µg/mL); with Staphylococcus aureus [4] it was 32 µM (≈ 36.5 µg/mL); with Escherichia coli [5], 16 µM (≈ 18.2 µg/mL); in the data set with Staphylococcus aureus [6], 32 µM (≈ 36.5 µg/mL). Further, the MIC is 32 µM (≈ 36.5 µg/mL) in the data set with Salmonella typhimurium [7]; 32 µM (≈ 36.5 µg/mL) with Staphylococcus aureus [8]; 16 µM (≈ 18.2 µg/mL) in the data set with Escherichia coli [9]; 32 µM (≈ 36.5 µg/mL) in data set [10]; 16 µM (≈ 18.2 µg/mL) with Salmonella typhimurium [11]. For the same molecule, the HC10 in data set [3] turned out to be 256 µM.

Values taken from ChEMBL document CHEMBL6087476, “Positive Charge-Concentrated Dimeric Lipopeptides with Enhanced Protease Resistance: A Potential Solution for Systemic Bacterial Infections” (J Med Chem, 2025).
